From patent US7951789B2 (priority 2006, dated 2011)
Where two headings read alike, the source gives them in different places.

Legend:
[1] = system: HCV Conl subgenomic replicon (GS4.1 cells); assay: HCV replicon assay (NS4A ELISA, HCV ELISA 2); type: cell-based; settings: Hepatitis C virus
Method: (§1) Huh-7 cells containing HCV Conl subgenomic replicon (GS4.1 cells), (C. Seeger; Fox Chase University, Philadelphia, Pa., USA), are grown in Dulbecco's Modified Eagle Medium (DMEM) supplemented with 10% fetal bovine serum (FBS), 2 mM L-glutamine, 110 mg/L sodium pyruvate, 1×non-essential amino acids, 100 U/mL penicillin-streptomycin and 0.5 mg/mL G418 (Invitrogen). For dose-response testing, the cells are seeded in 96-well plates at 7.5×10^3 cells/well in a volume of 50 μL and incubated at 37° C./5% CO2. Three hours after plating, 50 μL of ten 2-fold serial dilutions of compounds (highest concentration, 75 μM) are added and cell cultures were incubated at 37° C./5% CO2 in the presence of 0.5% DMSO. Alternatively, compounds are tested at a single concentration of 15 μM. In all cases, Huh-7 cells lacking the HCV replicon served as negative control. The cells are incubated in the presence of compounds for 72 hours after which they were monitored for expression of the NS4A protein by enzyme-linked immunosorbent assay (ELISA). For this, the plates were then fixed for 1 min with 1:1 acetone:methanol, washed twice with phosphate-buffered saline (PBS), 0.1% Tween 20, blocked for 1 hour at room temperature with TNE buffer containing 10% FBS and then incubated for 2 h at 37° C. with the anti-NS4A mouse monoclonal antibody A-236 (ViroGen) diluted in the same buffer. After washing three times with PBS, 0.1% Tween 20, the cells are incubated 1 hour at 37° C. with anti-mouse immunoglobulin G-peroxidase conjugate in TNE, 10% FBS. After washing as described above, the reaction is developed with O-phenylenediamine (Zymed). The reaction is stopped after 30 minutes with […] and the absorbance is read at 492 nm using a Sunrise Tecan spectrophotometer. EC50 values are determined from the % inhibition versus concentration data using a sigmoidal non-linear regression analysis based on four parameters with Tecan Magellan software. […] For cytotoxicity evaluation, GS4.1 cells are treated with compounds as described above and cellular viability was monitored using a Cell Titer 96 AQueous One Solution Cell Proliferation Assay (Promega). CC50 values are determined from the % cytotoxicity versus concentration data with Tecan Magellan software as described above.

[2] = Cytotoxicity evaluation in GS4.1 cells (Cell Titer 96 AQueous One Solution); type: cell-based; settings: human; for CC50: 72 hours
Method: as §1

[3] = GS4.1 cells, 72 hours, NS4A ELISA, read-out: HCV ELISA 2 EC50
[4] = 72 h, read-out: HCV ELISA 2 EC50 (μM)

| SMILES | EC50 [1, 3] | CC50 [2] | EC50 [1, 4] | CC50 at 72 h [2] |
| --- | --- | --- | --- | --- |
| CC(C)(CO)C(=O)SCCOP(=O)(NCc1ccccc1)OC[C@H]1O[C@@H](n2cnc3c(Cl)ncnc32)[C@](C)(O)[C@@H]1O (stereo partly drawn) [Example B396, Hydroxy-tBuSATE N-benzylphosphoramidate Derivative of 9-[2-C-methyl-β-ribofuranosyl]-6-chloropurine] | < 1 µM | ≤ 75 µM | – | – |
| C#C[C@@]1(F)[C@H](O)[C@@H](COP(=O)(NCc2ccccc2)OCCSC(=O)C(C)(C)CO)O[C@H]1n1cnc2c(=O)[nH]c(N)nc21 (stereo in doubt) [Example B503, N-Benzylaminyl-{9-[(2R)2-deoxy-2-fluoro-2-C-ethynyl-β-D-erythro-furanosyl]-guanin}-5′-yl-O-(hydroxy-tert-butyl-S-acyl-2-thioethyl) Phosphate] | 1 to 10 µM | > 75 µM | – | – |
| C[C@@]1(O)[C@H](O)[C@@H](CO)O[C@H]1n1ccc(=O)[nH]c1=O [C809 (NM106), 2′-C-methyluridine, reference compound] | > 10 µM | > 75 µM | – | – |
| CCCCN(CCCC)P(=O)(OCCSC(=O)C(C)(C)CO)OC[C@H]1O[C@@H](n2ccc(N)nc2=O)[C@](C)(O)[C@@H]1O (mixture of isomers) [Example B244, Hydroxy-tBuSATE N,N-(dibutylamine)phosphoramidate Derivative of 2′-C-methylcytidine] | – | – | > 10 µM | > 75 µM |
| C[C@@]1(O)[C@H](O)[C@@H](CO)O[C@H]1n1cnc2c(Cl)ncnc21 [Example A849, 9-[2-C-methyl-β-ribofuranosyl]-6-chloropurine, reference compound] | < 1 µM | > 75 µM | – | – |
| CC(C)(CO)C(=O)SCCOP(=O)(NCc1ccccc1)OC[C@H]1O[C@@H](n2cc(F)c3c(N)ncnc32)[C@](C)(O)[C@@H]1O (mixture of isomers) [Example B436, Hydroxy-tBuSATE N-benzylphosphoramidate Derivative of 2′-C-methyl-7-deaza-7-fluoro-adenosine] | 1 to 10 µM | > 75 µM | – | – |
| CC(C)(CO)C(=O)SCCOP(=O)(NCc1ccc(C(F)(F)F)cc1)OC[C@H]1O[C@@H](n2ccc(N)nc2=O)[C@](C)(O)[C@@H]1O (stereo in doubt) [Example B399, Hydroxy-tBuSATE N-(4-(trifluoromethyl)benzyl)phosphosphoramidate Derivative of 2′-C-methylcytidine] | 1 to 10 µM | > 75 µM | – | – |
| CC(C)(CO)C(=O)SCCOP(=O)(NC1CCCCC1)OC[C@H]1O[C@@H](n2ccc(N)nc2=O)[C@](C)(O)[C@@H]1O (stereo in doubt) [Example B354, Hydroxy-tBuSATE N-cyclohexylaminephosphosphoramidate Derivative of 2′-C-methyl-cytidine] | 1 to 10 µM | > 75 µM | – | – |
| C#C[C@@]1(F)[C@H](O)[C@@H](CO)O[C@H]1n1cnc2c(=O)[nH]c(N)nc21 [Example D961] | > 10 µM | > 75 µM | – | – |
| CC(C)(CO)C(=O)SCCOP(=O)(OC[C@H]1O[C@@H](n2ccc(N)nc2=O)[C@](C)(O)[C@@H]1O)N1CCOCC1 (mixture of isomers) [Example B391, Hydroxy-tBuSATE N-morpholinophosphosphoramidate Derivative of 2′-C-methylcytidine] | – | – | > 10 µM | > 75 µM |
| CC(=O)O[C@@H]1[C@@H](COP(=O)(NCc2ccccc2)OCCSC(=O)C(C)(C)CO)O[C@@H](n2ccc(N)nc2=O)[C@]1(C)OC(C)=O (stereo in doubt) [Example B390, Hydroxy-tBuSATE N-benzylphosphoramidate Derivative of 2′-C-methyl-2′,3′-di-O-acetyl-cytidine] | > 10 µM | > 75 µM | – | – |
| CC(C)(CO)C(=O)SCCOP(=O)(NCc1ccccc1)OC[C@H]1O[C@@H](n2cnc3c(=O)[nH]cnc32)[C@](C)(O)[C@@H]1O (mixture of isomers) [Example B186, Hydroxy-tBuSATE N-benzylphosphoramidate Derivative of 2′-C-methylinosine] | 1 to 10 µM | > 75 µM | – | – |
| CN(Cc1ccccc1)P(=O)(OCCSC(=O)C(C)(C)CO)OC[C@H]1O[C@@H](n2ccc(N)nc2=O)[C@](C)(O)[C@@H]1O (mixture of isomers) [Example B308, Hydroxy-tBuSATE N-methylbenzylphosphosphoramidate Derivative of 2′-C-methyl-cytidine] | – | – | 1 to 10 µM | > 75 µM |
| C[C@@]1(O)[C@H](O)[C@@H](CO)O[C@H]1n1cnc2c(=O)[nH]cnc21 [Example A608, 2′-C-methylinosine, reference compound] | > 10 µM | > 75 µM | – | – |
| CC(C)(CO)C(=O)SCCOP(=O)(NCc1ccccc1C(F)(F)F)OC[C@H]1O[C@@H](n2ccc(N)nc2=O)[C@](C)(O)[C@@H]1O (stereo in doubt) [Example B187, Hydroxy-tBuSATE N-(2-(trifluoromethyl)benzyl)phosphosphoramidate Derivative of 2′-C-methylcytidine] | 1 to 10 µM | > 75 µM | – | – |
| CC(C)(CO)C(=O)SCCOP(=O)(NCc1ccccc1)OC[C@H]1O[C@@H](n2cnc3c(N)ncnc32)[C@](C)(O)[C@@H]1O (mixture of isomers) [Example B263, Hydroxy-tBuSATE N-benzylphosphoramidate Derivative of 2′-C-methyladenosine] | 1 to 10 µM | > 75 µM | – | – |
| CC(C)(CO)C(=O)SCCOP(=O)(NCc1ccccc1)OC[C@H]1O[C@@H](n2cnc3c(=O)[nH]c(N)nc32)[C@]2(C)OC(=O)O[C@H]12 (stereo in doubt) [Example B307, N-Benzylaminyl-O-(hydroxy-tert-butyl-S-acyl-2-thioethyl)-2′,3′-O-carbonate-2′-C-methylguanosin-5′-yl phosphate] | < 1 µM | > 75 µM | – | – |
| C[C@@]1(O)[C@H](O)[C@@H](CO)O[C@H]1n1cc(F)c2c(N)ncnc21 [Example E810, 2′-C-methyl-7-deaza-7-fluoro-adenosine, reference compound] | < 1 µM | > 75 µM | – | – |
| C[C@@]1(O)[C@H](O)[C@@H](CO)O[C@H]1n1cnc2c(=O)[nH]c(N)nc21 [A844 (NM 108), 2′-C-methylguanosine, reference compound] | 1 to 10 µM | > 75 µM | – | – |
| CC(C)C(N)C(=O)O[C@@H]1[C@@H](COP(=O)(NCc2ccccc2)OCCSC(=O)C(C)(C)CO)O[C@@H](n2ccc(N)nc2=O)[C@]1(C)O (stereo partly drawn) [Example B234, Hydroxy-tBuSATE N-benzylphosphoramidate Derivative of 3′-O-L-valinyl-2′-C-methylcytidine] | 1 to 10 µM | > 75 µM | – | – |
| CC(=O)Nc1ccn([C@@H]2O[C@H](COP(=O)(NCc3ccccc3)OCCSC(=O)C(C)(C)CO)[C@@H](O)[C@@]2(C)O)c(=O)n1 (stereo in doubt) [Example B183, Hydroxy-tBuSATE N-benzylphosphoramidate Derivative of 2′-C-methyl-NH-4-acetyl-cytidine] | > 10 µM | > 75 µM | – | – |
| CCCCCCCCN(C)P(=O)(OCCSC(=O)C(C)(C)CO)OC[C@H]1O[C@@H](n2ccc(N)nc2=O)[C@](C)(O)[C@@H]1O (stereo in doubt) [Example B204, Hydroxy-tBuSATE N-(n-methyl-n-octyl-amine)phosphosphoramidate Derivative of 2′-C-methylcytidine] | – | – | 1 to 10 µM | > 75 µM |
| CC(C)(CO)C(=O)SCCOP(=O)(NCc1ccc(C(F)(F)F)cc1)OC[C@H]1O[C@@H](n2cnc3c(=O)[nH]c(N)nc32)[C@](C)(O)[C@@H]1O (stereo in doubt) [Example B242, O-(Hydroxy-tert-butyl-S-acyl-2-thioethyl)-2′-C-methylguanosin-5′-yl-N-(4-trifluoromethyl)-benzylaminyl Phosphate] | < 1 µM | > 75 µM | – | – |
| CC(C)(CO)C(=O)SCCOP(=O)(OC[C@H]1O[C@@H](n2ccc(N)nc2=O)[C@](C)(O)[C@@H]1O)N1CCCCC1 (mixture of isomers) [Example B353, Hydroxy-tBuSATE N-piperidinephosphosphoramidate Derivative of 2′-C-methyl-cytidine] | – | – | > 10 µM | > 75 µM |
| C[C@@]1(O)[C@H](O)[C@@H](CO)O[C@H]1n1cnc2c(N)ncnc21 [A374 (NM80), 2′-C-methyladenosine, reference compound] | < 1 µM | ≤ 75 µM | – | – |
| CC(C)(CO)C(=O)SCCOP(=O)(NCc1ccccc1)OC[C@H]1O[C@@H](n2cnc3c(=O)[nH]c(N)nc32)[C@](C)(O)[C@@H]1O (mixture of isomers) [Example B299, Hydroxy-tBuSATE N-benzylphosphoramidate Derivative of 2′-C-methylguanosine] | < 1 µM | > 75 µM | – | – |
